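Tested at 5 concentrations; 48 h exposure; 96-well plates; endpoints linearly interpolated, else capped at highest concentration. The concentration for 50% growth inhibition is given as GI50. At the TGI there is no net growth.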 Where a SMILES comes first, the peptide text is derived from it. The star is where a group is joined. Boc = CC(C)(C)OC(=O)*; OBn = c1ccc(CO*)cc1
Assays:
Assay in all cases: inhibition of tumour cell growth, NCI panel, 48 h
[1] = test system: NCI-H23 lung
[2] = test system: SF-295 CNS
[3] = test system: OVCAR-8 ovarian
[4] = test system: NCI-H460 lung
[5] = test system: MDA-MB-435
[6] = test system: MDA-N
[7] = test system: HT29 colon
[8] = test system: SK-MEL-28 melanoma
[9] = test system: HCC-2998 colon
[10] = test system: CAKI-1 renal
[11] = test system: OVCAR-5 ovarian
[12] = test system: RPMI-8226 leukemia
[13] = test system: UACC-62 melanoma
[14] = test system: EKVX NSCLC
[15] = test system: MCF7 breast
[16] = test system: HOP-92 NSCLC
[17] = test system: BT-549 breast
[18] = test system: K-562 leukemia
[19] = test system: RXF 393 renal

SMILES	TGI [1]	TGI [2]	TGI [3]	TGI [4]	TGI [5]	TGI [6]	TGI [7]	TGI [8]	TGI [9]	TGI [10]	TGI [11]	TGI [12]	TGI [13]	TGI [14]	TGI [15]	TGI [16]	TGI [17]	TGI [18]	TGI [19]	GI50 [18]
COc1cc(OCc2ccc3nc(-c4ccccc4)c(Cl)nc3c2)cc(OC)c1OC	> 100 µM	> 100 µM	> 100 µM	> 100 µM	> 100 µM	> 100 µM	> 100 µM	> 100 µM	> 100 µM	> 100 µM	> 100 µM	> 100 µM	> 100 µM	> 100 µM	> 100 µM	78.3 µM				
COC(=O)Nc1nc2ccc(S(=O)(=O)NC(CC(C)C)C(=O)OC)cc2[nH]1 (centres undefined)	> 100 µM	5.44 µM	> 100 µM	> 100 µM		2.18 µM	8.06 µM	> 100 µM		> 100 µM	95.1 µM	> 100 µM	> 100 µM	89.8 µM	> 100 µM	> 100 µM	> 100 µM	> 100 µM	15.9 µM	
O=C1c2ccccc2C(O)(C(=O)O)C1(O)CC=C(Cl)Cl (centres undefined)	> 125 µM	> 125 µM	> 125 µM	> 125 µM			> 125 µM	> 125 µM	> 125 µM	> 125 µM	> 125 µM	> 125 µM	> 125 µM	> 125 µM	> 125 µM	> 117 µM		> 125 µM	> 125 µM	
CCN(CC)C(=C(C(Cl)=C(Cl)Cl)[N+](=O)[O-])N(CC)CC	> 100 µM	> 100 µM	> 100 µM	> 100 µM		> 100 µM	> 100 µM	> 100 µM	> 100 µM	> 100 µM	> 100 µM	> 100 µM	> 100 µM	> 100 µM	> 100 µM		> 100 µM	> 100 µM	67 µM	
CC(=O)Oc1cc2c(n(C)c1=O)-c1ccccc1C2	> 100 µM	> 100 µM	> 100 µM	> 100 µM	> 100 µM	> 100 µM	> 100 µM	> 100 µM	> 100 µM	78 µM	> 100 µM	> 100 µM	> 100 µM			> 100 µM	> 100 µM	> 100 µM	> 100 µM	
COc1cc2c[n+](C)c3c4cc5c(cc4ccc3c2cc1OC)OCO5	3.65 µM	57.7 µM	29.9 µM	14.7 µM	> 100 µM	> 100 µM	4.6 µM	> 82.4 µM	7.52 µM		4.84 µM	23.5 µM	4.92 µM	18.7 µM		6.39 µM	78.4 µM	32.2 µM	49.7 µM	
CCOC(=O)CCC(NC(=O)c1ccc(CNc2nc3ccccc3nc2C(=O)OCC)cc1)C(=O)OCC (centres undefined)	> 100 µM	> 100 µM	> 100 µM		50.3 µM	> 100 µM	> 100 µM	> 100 µM			> 100 µM	> 100 µM	> 100 µM	> 100 µM	> 100 µM	> 100 µM		> 100 µM		
Ic1ncnc2c1ncn2C1CCCO1 (centres undefined)	> 100 µM	> 100 µM	> 100 µM	> 100 µM			> 100 µM	> 100 µM	> 100 µM	> 100 µM	> 100 µM	> 100 µM	> 100 µM	> 100 µM		> 100 µM		> 100 µM		
COc1ccc2cc(Oc3ccc(Cl)cc3)c(=O)oc2c1	> 100 µM	> 100 µM	> 100 µM	> 100 µM		> 100 µM	> 100 µM	> 100 µM		> 100 µM	> 100 µM	> 100 µM		> 100 µM	> 100 µM	> 100 µM	> 100 µM	> 100 µM	> 100 µM	
O=c1[nH]n(Cc2ccccc2Cl)c2ccc([N+](=O)[O-])cc12	> 100 µM		> 100 µM	> 100 µM	> 100 µM	> 100 µM	> 100 µM	> 100 µM	> 100 µM	> 100 µM	> 100 µM	> 100 µM	> 100 µM	> 100 µM		52 µM		> 100 µM	57.9 µM	
CC(C)C(NC(=O)C(Cc1ccccc1)NC(=O)OC(C)(C)C)C(=O)NCC(=O)OCc1ccccc1 (stereo not drawn) (Boc-Phe-Val-Gly-OBn; configuration not given here)	36.1 µM	34.6 µM	35.6 µM	37.9 µM	21.9 µM	33.5 µM	38.5 µM	30.5 µM	31.9 µM	33.7 µM	28.7 µM	42.5 µM	30.9 µM	37.9 µM				23.9 µM		
CC(=O)O[C@@H]1CC[C@@]2(C)C(CC[C@H]3[C@@H]4CC[C@H]([C@H](C)CCc5nc6ccc(C)cc6[nH]5)[C@@]4(C)CC[C@@H]32)C1 (some centres undefined)	> 100 µM	> 100 µM	> 100 µM		> 100 µM		70.7 µM	> 100 µM	> 100 µM	> 100 µM	> 100 µM	84.3 µM	> 100 µM	53.3 µM	> 100 µM	> 100 µM	> 100 µM	> 100 µM	> 100 µM	
OC1(CCc2ccccc2)COC(C(F)(F)F)(C(F)(F)F)C1 (centres undefined)	> 100 µM	> 100 µM	> 100 µM	> 100 µM	> 100 µM	> 100 µM	> 100 µM	> 100 µM	> 100 µM	> 100 µM	> 100 µM	> 100 µM	> 100 µM	> 100 µM	> 100 µM			> 100 µM	> 100 µM	
N=c1oc2ccc([N+](=O)[O-])cc2cc1C(=O)NCc1ccccc1		> 100 µM	33.2 µM	> 100 µM	49.3 µM		40.7 µM	35.8 µM	> 100 µM	36.2 µM	96 µM	> 100 µM	42.9 µM	> 100 µM	> 100 µM	36.7 µM	30 µM	> 100 µM	28 µM	
CC12CCC3[C@@H](CC3(C)C)C(O)(CCC1=O)C2 (some centres undefined)	> 100 µM	> 100 µM	> 100 µM		> 100 µM	> 100 µM	> 100 µM	> 100 µM	> 100 µM	> 100 µM	> 100 µM	> 100 µM	> 100 µM	> 100 µM	> 100 µM	> 100 µM		> 100 µM		
COCC(N=CN1CCCc2ccccc2[C@@H]1CCCCl)C(C)(C)C (some centres undefined)	21.1 µM	35.1 µM	40.7 µM	97.2 µM	26.4 µM	68.2 µM	69.7 µM	> 100 µM	33.9 µM	31.9 µM	49.5 µM	8.95 µM	32.1 µM	88.9 µM	4.28 µM	30 µM		14.2 µM	32.5 µM	
CCOC(=O)NNC(=O)C1CSC(c2ccccc2)N1C(C)=O (centres undefined)	> 100 µM	> 100 µM	> 100 µM	> 100 µM	> 100 µM		> 100 µM		> 100 µM	> 100 µM	> 100 µM	> 100 µM	> 100 µM	> 100 µM	> 100 µM	> 100 µM	> 100 µM	> 100 µM		
CCN(CC)c1cc2c3c(c1)CCCN3CCC2	> 10 µM	> 10 µM	> 10 µM	> 10 µM	> 10 µM	> 10 µM	> 10 µM	> 10 µM	> 10 µM	> 10 µM		> 10 µM	> 10 µM	> 10 µM	> 10 µM	> 10 µM		> 10 µM	> 10 µM	
CCCCCCCCCCCCCCCCCCNc1ccn(C2OC(COP(=O)(O)OC3CC(n4cc(F)c(=O)[nH]c4=O)OC3COP(=O)(O)OCC3OC(n4ccc(N)nc4=O)C(O)C3O)C(O)C2O)c(=O)n1 (centres undefined)	> 45.7 µM	> 51.9 µM	> 51.8 µM	> 32.7 µM	> 62.5 µM		> 59.4 µM	> 100 µM	27.3 µM	35.5 µM	> 100 µM	71.4 µM	> 44.4 µM	> 74.6 µM	> 100 µM	> 100 µM	33.4 µM	> 100 µM	> 75.5 µM	
COC1CC(C)C(OC)C2=CC(=O)C=C(NC(=O)/C(C)=C/C=C\C(C)C(OC(N)=O)/C(C)=C\C(C)C1OC)C2=O (centres undefined)	13.8 µM	13.4 µM	18.3 µM	8.37 µM				1.05 µM	2.11 µM	6.6 µM	17.8 µM	4.39 µM	14.8 µM	23.1 µM		10.9 µM		1.19 µM	1.68 µM	0.047 µM
CC[C@](O)(CC(=O)O[C@H]1C(=O)O[C@@H]2C[C@H]3C(C)=CC(=O)[C@@H](O)[C@]3(C)[C@H]3[C@@]4(O)OC[C@]32[C@@H]1[C@@H](C)[C@H]4O)C(C)C	< 0.01 µM	< 0.01 µM	< 0.01 µM	< 0.01 µM	< 0.01 µM	< 0.01 µM	< 0.01 µM	< 0.01 µM	< 0.01 µM	0.0398 µM	< 0.01 µM		< 0.01 µM	< 0.01 µM	< 0.0392 µM	< 0.01 µM		< 0.01 µM	< 0.01 µM	
COC(=O)C(C)NP(=O)(N1CC1)N1CC1 (centres undefined)	> 100 µM	> 100 µM	> 100 µM				> 100 µM	> 100 µM	> 100 µM	> 100 µM	> 100 µM	> 100 µM	> 100 µM	> 100 µM				> 100 µM	> 100 µM	
COc1cc(S(=O)(=O)Nc2nc(-c3ccc(N4C(=O)CSC4c4cccs4)cc3)cs2)ccc1Cl (centres undefined)	89 µM	> 100 µM	> 100 µM	> 100 µM	> 100 µM	> 100 µM	> 100 µM	> 100 µM		> 100 µM	> 100 µM		> 100 µM		> 100 µM	> 100 µM		> 100 µM	55.9 µM	
COc1cc(S(=O)(=O)Nc2nc(-c3ccc(N4C(=O)C(CC(=O)O)SC4c4ccccc4O)cc3)cs2)ccc1Cl (centres undefined)	86.7 µM	> 100 µM	> 100 µM	> 100 µM	> 100 µM	> 100 µM	> 100 µM	> 100 µM	> 100 µM	> 100 µM	> 100 µM		> 100 µM		> 100 µM	> 100 µM		> 100 µM	> 100 µM	
CCC(Sc1cc(Cl)c(C)cc1S(=O)(=O)Nc1nc(N)nc(N(C)C)n1)C(=O)O (centres undefined)	> 10 µM	> 10 µM	> 10 µM	> 10 µM		> 10 µM	> 10 µM	> 10 µM	> 10 µM	> 10 µM	> 10 µM	> 10 µM		> 10 µM	> 10 µM	> 10 µM	> 10 µM	> 10 µM	> 10 µM	
CN1C2CCC1CC(CCOC(c1ccc(F)cc1)c1ccc(F)cc1)C2 (centres undefined)	42.1 µM	30.8 µM	32.1 µM	32.2 µM	25.7 µM	37.5 µM	19.1 µM	31.7 µM		32.6 µM	36.7 µM	44.4 µM		27.7 µM		34.3 µM	31.1 µM	35.8 µM	22.6 µM	
O=[n+]1c2ccccc2n([O-])c2ccccc21	> 100 µM	> 100 µM	> 100 µM	> 100 µM	> 100 µM		> 100 µM	> 100 µM		> 100 µM	> 100 µM	> 100 µM	> 100 µM	> 100 µM	> 100 µM			> 100 µM		

Source: PubChem BioAssay (NCI)
